Results on four substances are retold here after article PMC8481536, “Wells–Dawson phosphotungstates as mushroom tyrosinase inhibitors: a speciation study” (Scientific Reports, 2021).

Where two headings read alike, the source gives them in different places. Marks after values point to notes of the source that are not given here.

A word on the Ki: it is a dissociation constant, usually derived from enzyme kinetics or from competition with a known ligand.

The target of the test is T1, AbPPO4 (Agaricus bisporus, UniProt C7FF05, S179N/V121A).
T1 construct: GST (glutathione-S-transferase) (N, cleaved yes); made in house; host or cells: E. coli BL21(DE3)
T1 sequence (C7FF05 1-383 V121A/S179N): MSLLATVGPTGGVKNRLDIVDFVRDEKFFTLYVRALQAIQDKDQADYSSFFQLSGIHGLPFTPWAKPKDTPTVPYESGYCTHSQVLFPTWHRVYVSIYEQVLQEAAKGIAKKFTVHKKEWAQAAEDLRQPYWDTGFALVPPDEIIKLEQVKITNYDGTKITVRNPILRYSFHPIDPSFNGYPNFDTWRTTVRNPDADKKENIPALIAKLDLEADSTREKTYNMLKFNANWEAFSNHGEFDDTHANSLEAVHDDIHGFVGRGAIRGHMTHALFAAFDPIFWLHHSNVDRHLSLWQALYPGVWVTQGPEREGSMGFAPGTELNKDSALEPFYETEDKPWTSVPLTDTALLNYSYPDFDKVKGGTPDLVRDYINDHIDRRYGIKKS
The class given is biochemical. More on the design: α · Ki: unit not given here. The note with it: for Inhibition type / α (inhibition parameter) from the Lineweaver–Burk intercepts / Ki / α (inhibition parameter) from activity plot: 50 mM Na-citrate pH 6.8; for Inhibition type: L-DOPA substrate; for α · Ki: from Lineweaver-Burk ordinate intercepts vs [I], [S] 0.4-[…] (Table S5); for α (inhibition parameter) from activity plot: hyperbolic fit. The method, then:
AbPPO4 was purified and activated according to Pretzler et al.[15]. […] The diphenolase activity of tyrosinase was monitored using 1 mM L-DOPA (Fig. S1A) as the substrate. Considering that the Wells–Dawson POT stability is pH and possibly time dependent, a speciation study was performed which is detailed in the paragraph "Speciation of Wells–Dawson POT by ^183W-NMR and ^31P-NMR analyses at pH 6.8". The concentration of the investigated Wells–Dawson phosphotungstates was in the range between 0 and 5 mM. If enzymatic inhibition was observed, data were taken in triplicates and fitted with a hyperbolic function (cf. SI Eq. (5)) from a mixed inhibition model to evaluate the Ki and α-parameters. […] (Fig. S1B) was additionally tested and evaluated applying exactly the same mathematical model.
The type of enzymatic inhibition is usually investigated by linear plots according to Lineweaver–Burk, also allowing for further validation of the inhibitory constant Ki.[9] […] The slopes (SI Eq. (13), insets in Figs. S14–S17) and ordinate intercepts of these regression lines were further evaluated to validate the inhibitory constant Ki and the α-parameter from the non-linear regression procedure. […] Similarly, the Lineweaver–Burk ordinate intercepts were evaluated for the α-parameter (cf. Table S5 and Table 1).
UV–VIS measurements were carried out on a Shimadzu UV 2401PC following the specific absorption of dopachrome at 475 nm (ε = 3700 M^−1 cm^−1[7]). For all measurements, 50 mM Na-citrate at pH 6.8 was used as the buffer agent to ensure physiological conditions. The stock solutions of POTs were prepared on the day of measurements and used within 3 days.
For a general 1 mL reaction setup in a polystyrene cuvette, 1 µg/mL AbPPO4 (~ 23 nM) was used to catalyze the reaction. The relative inhibition was investigated using 1 mM L-DOPA as the substrate and applying an inhibitor concentration range from 0 to 5 mM to obtain activity curves. For the Lineweaver–Burk plots, a L-DOPA concentration range of 0.4–1.5 mM was assayed for three different POT concentrations, respectively. […]
is the enzymatic reaction velocity, the maximal enzymatic velocity of the enzyme, the concentration for the half-maximal velocity and the substrate concentration. If enzyme inhibition is taken into account, apparent values (e.g., , , ) are employed. For all inhibition mechanisms the apparent maximal velocity is given by and the apparent Michalis-Menten constant is Equations (3) and (2) are inserted into equation (1). To obtain the relative inhibition (in %), is divided by the uninhibited enzymatic velocity .
Herein, [I] refers to the inhibitor concentration, Ki is the inhibition constant measuring the […]
The three ideal inhibition types are reflected by three limiting conditions for α, with α as quotient of the inhibition constant of the uncompetitive and competitive inhibition:
(A) 0 < α <<1: uncompetitive inhibition
(B) α = 1: non-competitive inhibition
(C) α >> 1: competitive inhibition […]
uncompetitive and non-competitive inhibition modes.
The concentration of L-DOPA was kept constant at 1 mM for all experiments.
The final hyperbolic equation (5) was used for the curve

Where [1] appears, read: L-DOPA 0.4-[…], three inhibitor concentrations, read-out: Ki (inhibition constant) from the Lineweaver–Burk slopes.
The mark [2] stands for this setting: hyperbolic fit of mixed inhibition model, 1 mM L-DOPA, 0-5 mM inhibitor, read-out: Ki (inhibition constant) from activity plot.

As for “K10[α2-P^V2W^VI17O61]·20H2O [[P2W17]^10−]”, the Inhibition type result is recorded as “mixed-type inhibition” and the “α · Ki” value came to 0.10. The “α (inhibition parameter) from the Lineweaver–Burk intercepts” value (L-DOPA 0.4-[…]) is recorded as 0.01^a, 0.01^b. Besides, the inhibitory constant (Ki) under setting [1] amounted to 10.6 mM. For the same substance, under setting [2], the Ki is 6.5 mM. In addition, the “α (inhibition parameter) from activity plot” value (1 mM L-DOPA) was 0.01^a, 0.01^b.
“(NH4)12[H2P^V2W^VI12O48]·24H2O [[P2W12]^12−]”: the Inhibition type result is on record as “mixed-type inhibition” and the “α · Ki” value is 1.58. The “α (inhibition parameter) from the Lineweaver–Burk intercepts” value (L-DOPA 0.4-[…]) came out at 0.28. Under setting [1], the Ki worked out at 5.6 mM. Moreover, the Ki under setting [2] came to 7.5 mM. Where the note is “1 mM L-DOPA”, the “α (inhibition parameter) from activity plot” value is reported as 0.017.
K12[P^V2W^VI15O56]·24H2O [[P2W15]^12−]: the Inhibition type result is “mixed-type inhibition” and the “α · Ki” value is listed as 2.14. In addition, the “α (inhibition parameter) from the Lineweaver–Burk intercepts” value (L-DOPA 0.4-[…]) was 0.20. In addition, under setting [1], the Ki worked out at 10.7 mM. The Ki under setting [2] was determined as 13.6 mM. Besides, the “α (inhibition parameter) from activity plot” value (1 mM L-DOPA) is on record as 0.003.
With “K6[α/β-P^V2W^VI18O62]·14H2O [[P2W18]^6−]”, the Inhibition type entry is “mixed-type inhibition” and the “α · Ki” value is reported as 2.85. Moreover, the “α (inhibition parameter) from the Lineweaver–Burk intercepts” value (L-DOPA 0.4-[…]) turned out to be 0.22. Besides, the Ki under setting [1] is 13 mM. The inhibition constant Ki under setting [2] came out at 9.7 mM. In addition, where the note is “1 mM L-DOPA”, the “α (inhibition parameter) from activity plot” value is reported as 0.013.
